Consider 18 compounds from article PMC8279495, “Design, Synthesis, and Biological Evaluation of Boron-Containing Macrocyclic Polyamines and Their Zinc(II) Complexes for Boron Neutron Capture Therapy” (Journal of Medicinal Chemistry, 2021).

“Also recorded” adds a separate entry of the source. Read-outs that look alike come from different tables or passages of the source.

Broadly, the IC50 is the concentration needed to halve the response being measured. Usually melting point stands for the temperature of the solid-liquid transition.

One data set concerns IMR-90 cells. Briefly: MTT cytotoxicity assay, IMR-90 cells. The class given is cell-based. Conditions: 0–200 μM, treatment for 24 h, normal human fibroblast. The procedure: (§1) HeLa S3, A549, and IMR-90 cells (1 × 10^4 cells/well) were seeded on 96-well plates (Watson) in cell culture medium. […] After incubation for 4 h, a formazan lysis solution (10% sodium dodecyl sulfate in 0.01 N HCl aq) (100 μL) was added and the resulting solution was incubated under same conditions overnight. The absorbance at λ = 570 nm was measured with a microplate reader (Bio-Rad).
(Formazan colour is commonly taken as a measure of viable cells.)

Data set [1] has as its system HeLa S3 cells. Briefly: MTT cytotoxicity assay, HeLa S3 cells. The class given is cell-based, human. Conditions: treatment for 24 h. The procedure:
as §1

The subject of data set [2] is A549 cells. Put plainly: MTT cytotoxicity assay, A549 cells. The format is cell-based, human. Conditions: read-out: IC50 A549. The protocol: as §1
Data set [3] in a line: Hydrolysis of the C–B bond observed by ^11B-NMR. The format is physicochemical. From the text: The Zn^2+ complex of the o-form 7 was not obtained due to the carbon–boron bond cleavage that occurred upon complexation with Zn^2+, as previously described.[20]
Data set [4] has as its system A549 cells. Briefly: Anti-tumor effect with thermal neutron irradiation (colony formation assay). The format is cell-based, human. The following applies: A549, 30 μM for 24 h, thermal neutrons 0–45 min, colony formation after 7 days. The procedure:
BNCT experiments using A549 cells in the presence of the aforementioned B-containing drugs (^10B/^11B and ^10B-enriched compounds) were conducted at the Institute for Integrated Radiation and Nuclear Science, Kyoto University (KURNS). As shown in Scheme 12, A549 cells were incubated with the boron compounds (30 μM) for 24 h and suspensions (5 × 10^4 cells/mL) of these cells were irradiated with thermal neutrons [average thermal neutron flux: (1.5 ± 0.1) × 10^9 n/cm^2·s] at room temperature for various times (0, 15, 30, and 45 min). The irradiated cells were seeded on the 12 well plate (3 × 10^3 cells/well), incubated for 7 days, fixed with EtOH, and stained with crystal violet to produce visualizable images (Figure S5 in the Supporting Information). The surviving fractions were calculated as the stained colony area using the “ImageJ-plugin Colony Area”[43] software and normalized by comparing the results with those for non-irradiated cell samples (Figure 6).
A549 cells (5 × 10^5 cells/well) were seeded on 6-well plates (TrueLine, USA) and incubated in cell culture medium at 37 °C under 5% CO2 for 1 day. After removing the cell culture medium, the cells were washed gently with PBS. […] The thermal neutron flux (1.5 × 10^9 n/cm^2·s) was measured by two gold foils which were attached to the surface of the 1.5 mL tube. […]

The subject of data set [5] is HeLa S3 cells. Put plainly: Effect of inhibitors on intracellular uptake, HeLa S3 cells. The class given is cell-based, human. The following applies: HeLa S3, 30 μM, 37 °C, 1 h. The protocol: Data represent the mean ± SD of at least three replicates.
HeLa S3 and A549 cells (5 × 10^5 cells/well) were seeded on 6-well plates (TrueLine, USA) and incubated in cell culture medium at 37 °C under 5% CO2 for 2 days (n = 4). […] To count the number of cells after treatment with the boron compounds, the cells (n = 1) were washed with PBS, detached by trypsin, and counted with a hemocytometer. For measurement of boron uptake, the cells (n = 3) were washed with PBS (1 mL ×3) and digested with 60% HNO3 aq (0.5 mL) at room temperature for 24 h, which were transferred to 15 mL centrifuge tubes with Milli-Q water (3.5 mL). These tubes were centrifuged at 3000 rpm and 4 °C for 10 min and then sample solutions were filtered. The concentration of boron atoms was determined by ICP–MS (NexION300S, PerkinElmer, Waltham, Massachusetts, USA).

For data set [6], the system named is double-stranded calf-thymus DNA (ctDNA). Put plainly: Thermal denaturation (melting temperature) of ctDNA. The class given is binding. Conditions: pH 7.4; for Tm of ctDNA: without additive 66. The protocol:
Thermal denaturation experiments of ctDNA (50 μM in phosphate) in 10 mM HEPES buffer (pH 7.4) with I = 0.02 (NaNO3) were performed on a JASCO V-550 UV/vis spectrophotometer (JASCO, Tokyo, Japan) equipped with a thermoelectric temperature controller (±0.5 °C), a stirring unit, and a 10 mm quartz cuvette. All aqueous solutions were made with purified water. The concentration of ctDNA was determined by UV absorption spectroscopy based on its molar extinction coefficient at 253 nm (ε253 = 6.6 × 10^3).[31d],[45] […] The Tm value was graphically determined from the spectral data, and the ΔTm value for each condition was calculated from the results in the presence and absence of additives.

On the set-up of data set [7]: method as in earlier work. Conditions: aqueous solution at 25 °C, ref 24−26; cited from earlier work.
On the set-up of data set [8]: method as in PMID 32192025. Conditions: aqueous solution at 25 °C; cited from earlier work.
Setting [9] is: Homo sapiens, HeLa S3, 0–200 μM.

For the compound `O=C(O)C(F)(F)F.OB(O)c1ccc(CN2CCNCCNCC2)cc1` [12a, 1-[(4-Boronopheny)methyl]-1,4,7-triazacyclononane], the melting point lay within 138 to 141 °C. Besides, the half-maximal inhibitory concentration (IC50) with IMR-90 cells (Homo sapiens, IMR-90, 24 h) is greater than 200 µM. Moreover, the IC50 with HeLa S3 cells [1] (setting [9]) is greater than 200 µM. Further, in the data set with A549 cells [2] (Homo sapiens, A549, 24 h), the IC50 was greater than 200 µM.
Compound `O=C(O)C(F)(F)F.OB(O)c1ccc(CN2CCNCCNCCNCC2)cc1` [13a, 1-[(4-Boronopheny)methyl]-1,4,7,10-tetraazacyclododecane] yielded a melting point of 172 to 175 °C. Further, the 50% inhibitory concentration (IC50) in the data set on IMR-90 cells (Homo sapiens, IMR-90, 24 h) was greater than 200 µM. The same compound came in with an IC50 in the data set on HeLa S3 cells [1] (setting [9]) greater than 200 µM. In the data set on A549 cells [2] (Homo sapiens, A549, 24 h), the IC50 is greater than 200 µM.
As to `O=C(O)C(F)(F)F.OB(O)c1ccc(CN2CCNCCNCCNCCNCC2)cc1` [14a, 1-[(4-Boronopheny)methyl]-1,4,7,10,13-pentaazacyclopentadecane], the melting point was 136 to 137 °C. In the data set on IMR-90 cells (Homo sapiens, IMR-90, 24 h), this compound gave an IC50 greater than 200 µM. Moreover, in the data set on HeLa S3 cells [1] (setting [9]), the IC50 was greater than 200 µM. Moreover, in the data set with A549 cells [2] (Homo sapiens, A549, 24 h), the 50% inhibitory concentration (IC50) was greater than 200 µM.
`c1cc(B2OC3(CCCCC3)C3(CCCCC3)O2)ccc1CN1CCNCCNCC1` [15a] displayed a melting point of 65 to 67 °C.
For the compound `c1cc(CN2CCNCCNCC2)cc(B2OC3(CCCCC3)C3(CCCCC3)O2)c1` [15b], the melting point was 57 to 58 °C.
`c1cc(B2OC3(CCCCC3)C3(CCCCC3)O2)ccc1CN1CCNCCNCCNCC1` [16a] had a melting point of 129 to 131 °C.
On to `c1cc(CN2CCNCCNCCNCC2)cc(B2OC3(CCCCC3)C3(CCCCC3)O2)c1` [16b], for which the melting point lay within 46 to 48 °C.
The compound `c1cc(B2OC3(CCCCC3)C3(CCCCC3)O2)ccc1CN1CCNCCNCCNCCNCC1` [17a] showed a melting point of 43 to 44 °C.
Same read-out and setting: the result for `c1ccc(B2OC3(CCCCC3)C3(CCCCC3)O2)c(CN2CCNCCNCCNCCNCC2)c1` [17c, 1-[2-(13,15-Dioxa-15-boradispiro[5.0.5.3]pentadec-14-yl)phenyl]methyl-1,4,7,10,13-pentaazacyclopentadecane] reads 78 to 80 °C.
For `[Zn+2].c1ccc(B2OC3(CCCCC3)C3(CCCCC3)O2)c(CN2CCNCCNCCNCCNCC2)c1` [20c], the “half-life of C–B bond hydrolysis” value in data set [3] is roughly 24 h.
Take `c1cc(C2OC3(CCCCC3)C3(CCCCC3)O2)ccc1CN1CCNCCNCCNCCNCC1` [^10B-17a, 1-[4-(13,15-Dioxa-15-boradispiro[5.0.5.3]pentadec-14-yl)phenyl]methyl-1,4,7,10,13-pentaazacyclopentadecane]: the “BNCT effect (cytotoxic activity after thermal neutron irradiation, surviving fraction)” value in the data set on A549 cells [4] is “higher than that for 1 (^10B-BSH) and 2 (^10B-BPA); also recorded: higher BNCT effect than ^10B-19b and ^10B-20a”.
Consider `N[C@@H](Cc1ccc([10B](O)O)cc1)C(=O)O` [compound 2, L-4-boronophenylalanine, reference compound], for which the IC50 with IMR-90 cells (Homo sapiens, IMR-90, 24 h) is greater than 200 µM; with HeLa S3 cells [1] (setting [9]), greater than 200 µM; in the data set on A549 cells [2] (Homo sapiens, A549, 24 h, MTT, 0–200 μM, treatment for 24 h) it was greater than 200 µM. For the same compound, the “relative uptake in the presence of MβCD” value with HeLa S3 cells [5] (1.5 mM of MβCD) is “weak inhibition”. Further, the “relative uptake in the presence of amiloride” value in the data set with HeLa S3 cells [5] (2 mM of amiloride) is on record as “increased intracellular uptake”.
`NCCCCNCCCN` [compound 3, spermidine]: in [6] (r = 0.1, [ctDNA(P)] = 50 μM), the “ΔTm of ctDNA” value was “+7 °C” and the “Tm of ctDNA” value was 73 °C. In addition, in [6] (r = 0.2, [ctDNA(P)] = 50 μM), the “ΔTm of ctDNA” value was “+12 °C” and the “Tm of ctDNA” value stood at 78 °C.
Take `C1CNCCNCCN1` [compound 9, 1,4,7-triazacyclononane]: the pKa1 result in data set [7] was “less than 2”.
Turning to `C1CNCCNCCNCCN1` [compound 10, 1,4,7,10-tetraazacyclododecane], in data set [7], the pKa1 result is listed as “less than 2” and the pKa2 result was “less than 2”.
For the compound `C1CNCCNCCNCCNCCN1` [compound 11, 1,4,7,10,13-pentaazacyclopentadecane], in data set [7], the pKa1 entry is listed as “less than 2” and the pKa2 result is recorded as “less than 2”.
In the case of `C1CNCCNCCN1.[Zn+2]` [compound 31], in data set [8], the “log KZnL” value is 11.3.
“sodium mercaptoborate [compound 1, reference compound]”: the concentration for half-maximal inhibition (IC50) in the data set with IMR-90 cells is greater than 200 µM; in the data set with HeLa S3 cells [1] (0–200 μM) it was greater than 200 µM; with A549 cells [2] (MTT, 0–200 μM, treatment for 24 h), greater than 200 µM.
